Measured values: patent US8399515B2, “Five and fifteen carbon fatty acids for treating metabolic disorders and as nutritional supplements” (Baylor Research Institute, priority 2003, dated 2013)
“And” between values parts separate entries of the source, which are not always exact repeats. Equal entries are not always repeated.

Columns and labels:
[1] = system: fibroblasts from patients with Very-long-chain acyl-CoA dehydrogenase (VLCAD) deficiency, severe cardiac form; test: Propionylcarnitine from oxidation of odd-carbon fatty acids in VLCAD (cardiac) fibroblasts; assay type: cell-based, human; conditions: VLCAD cardiac fibroblasts, one line per patient, 72 hours incubation
Description: (§1) Fibroblasts obtained from patients with inherited defects of mitochondrial fat oxidation were cultured in the presence of omega deuterated odd-carbon numbered fatty acids, as described in Roe, C. R., Sweetman, L., Roe, D. S., David, F., Brunengraber, H., “Effective Dietary Treatment of Cardiomyopathy & Rhabdomyolysis in Long-Chain Fat Oxidation Disorders using an Anaplerotic Odd-Chain Triglyceride,” J. Clin. Invest. 110 (2): 259-269 (2002).
(§2) The data in Table 1 represents testing of cultured fibroblasts derived from ten patients afflicted with Very-long-chain acyl-CoA dehydrogenase (VLCAD) deficiency (six patients with the severe cardiac form and four with the non-cardiac milder phenotype), two patients with Mitochondrial Trifunctional Protein (MTP) deficiency, five patients having L-3-hydroxy-acyl-CoA dehydrogenase (LCHAD) deficiency and three patients with Short-chain acyl-CoA dehydrogenase (SCAD) deficiency.

[2] = system: control / normal fibroblasts; test: Fate of odd-carbon fatty acids in control (normal) fibroblasts; assay type: cell-based, human; parameters: *C3 acylcarnitine / *C5 acylcarnitine / *C7 acylcarnitine / *C9 acylcarnitine / *C11 acylcarnitine / *C13 acylcarnitine / *C15 acylcarnitine: unit not given here; conditions: for Propionylcarnitine from odd carbon precursor: NORMAL fibroblasts
Description: Fibroblasts obtained from patients with inherited defects of mitochondrial fat oxidation were cultured in the presence of omega deuterated odd-carbon numbered fatty acids, as described in Roe, C. R., Sweetman, L., Roe, D. S., David, F., Brunengraber, H., “Effective Dietary Treatment of Cardiomyopathy & Rhabdomyolysis in Long-Chain Fat Oxidation Disorders using an Anaplerotic Odd-Chain Triglyceride,” J. Clin. Invest. 110 (2): 259-269 (2002). […]

[3] = system: MCAD-deficient fibroblasts; test: Fate of odd-carbon fatty acids in MCAD-deficient fibroblasts; assay type: cell-based, human; parameters: *C3 acylcarnitine / *C5 acylcarnitine / *C7 acylcarnitine / *C9 acylcarnitine / *C11 acylcarnitine / *C13 acylcarnitine / *C15 acylcarnitine: unit not given here; conditions: for *C3 acylcarnitine / *C5 acylcarnitine / *C7 acylcarnitine / *C9 acylcarnitine: MCAD fibroblasts, N 4
Description: as §1
Fibroblasts from four patients with MCAD deficiency and one heterozygote (carrier) indicate that odd-carbon fatty acids containing more than seven carbons can not be effectively used in that disease. […]

[4] = system: fibroblasts from patients with Short-chain acyl-CoA dehydrogenase (SCAD) deficiency; test: Propionylcarnitine from oxidation of odd-carbon fatty acids in SCAD fibroblasts; assay type: cell-based, human; conditions: SCAD fibroblasts, one line per patient, 72 hours incubation
Description: as §1, §2

[5] = system: fibroblasts from patients with L-3-hydroxy-acyl-CoA dehydrogenase (LCHAD) deficiency; test: Propionylcarnitine from oxidation of odd-carbon fatty acids in LCHAD fibroblasts; assay type: cell-based, human; conditions: LCHAD fibroblasts, one line per patient, 72 hours incubation
Description: as §1, §2

VLCAD patient = test: Meal test with triheptanoin or tripentanoin in a VLCAD patient; assay type: in vivo, human; parameters: Myristenoylcarnitine Level: unit not given here; conditions: for Myristenoylcarnitine Level / Propionylcarnitine Level: blood
Excerpt: (§3) A VLCAD patient and an SCAD patient, both of whom had gastrostomy sites for enteral administration, each were provided with separate meals containing equimolar amounts of triheptanoin (C7) and tripentanoin (C5) at different times on the same day. Each patient was given the amount in 1 of 4 daily meals equivalent to a diet of 3 gms/Kg/day or about 30% of total Kcal as the triglyceride. Serial blood samples were obtained hourly and individual urines were collected at baseline and during the meal.
(§4) The patient with VLCAD (FIG. 3) was monitored over a 3 hour interval and the SCAD patient was monitored for 4 hours after beginning the meal. […] One way the VLCAD patient was monitored was for myristenoylcamitine (cis-5-C14:1), which reflects oxidation of oleate and is therefore an indication of ongoing lipolysis during the meal tests (it is not derived from either C7 or C5). […] These changes are not observed with even-carbon triglycerides.

SCAD patient = test: Meal test with triheptanoin or tripentanoin in a SCAD patient; assay type: in vivo, human
Excerpt: as §3, §4
The second patient with SCAD deficiency (FIG. 4) had been receiving the triheptanoin diet for more than 2 years. This disorder is due to an inherited deficiency of butyryl-CoA dehydrogenase (SCAD) and is known to oxidize even carbon fatty acids of 4-6 carbon chain length.
In FIG. 4, C7-C3 represents the blood levels of C3 derived from C7; and C5-C3 represents the blood levels of C3 derived from C5, C7-C5 represents blood levels of pentanoylcarnitine (C5) derived from C7 meals and C5-C5 represents blood levels of pentanoylcarnitine (C5) derived from C5 meals. […] C7-C4 and C5-C4 represent the levels of the disease-specific acylcarnitine (butyrylcarnitine [C4]) observed in SCAD deficiency. […] This increased quantity of C3 corresponds to those observed for SCAD deficiency in the fibroblast studies above shown in Table 1.

[6] = system: fibroblasts from patients with VLCAD deficiency, non-cardiac milder phenotype; test: Propionylcarnitine from oxidation of odd-carbon fatty acids in VLCAD (non-cardiac) fibroblasts; assay type: cell-based, human; conditions: VLCAD non-cardiac fibroblasts, one line per patient, 72 hours incubation
Description: as §1, §2

[7] = system: fibroblasts from MCAD heterozygote (carrier); test: Fate of odd-carbon fatty acids in MCAD carrier fibroblasts; assay type: cell-based, human; parameters: unit not given here
Description: as §1
Fibroblasts from four patients with MCAD deficiency and one heterozygote (carrier) indicate that odd-carbon fatty acids containing more than seven carbons can not be effectively used in that disease. […] That any C3 was produced is presumably due to overlapping

[8] = system: fibroblasts from patients with Mitochondrial Trifunctional Protein (MTP) deficiency; test: Propionylcarnitine from oxidation of odd-carbon fatty acids in MTP fibroblasts; assay type: cell-based, human; conditions: MTP fibroblasts, one line per patient, 72 hours incubation
Description: as §1, §2

SMILES: CCCCCCC(=O)O [C7, heptanoate, reference compound]
- Propionylcarnitine from oxidation of fatty acid [1]: 28.7 nmol/mg Protein/72 hours and 13.0 nmol/mg Protein/72 hours and 44.5 nmol/mg Protein/72 hours and 17.8 nmol/mg Protein/72 hours and 20.4 nmol/mg Protein/72 hours and 25.0 nmol/mg Protein/72 hours
- *C3 acylcarnitine ([2]; CONTROL MEAN, N = 4): 24.3
- *C5 acylcarnitine ([2]; CONTROL MEAN, N = 4): 1.3
- *C7 acylcarnitine ([2]; CONTROL MEAN, N = 4): 0.4
- Propionylcarnitine from odd carbon precursor [2]: 24.3 nmol/mg Protein/72 hours
- *C3 acylcarnitine ([3]; Maximum): 15.4
- *C5 acylcarnitine ([3]; Maximum): 1.8
- *C7 acylcarnitine ([3]; Maximum): 12.0
- *C3 acylcarnitine ([3]; Mean): 8.3
- *C5 acylcarnitine ([3]; Mean): 1.1
- *C7 acylcarnitine ([3]; Mean): 8.3
- *C3 acylcarnitine ([3]; Minimum): 5.7
- *C5 acylcarnitine ([3]; Minimum): 0.7
- *C7 acylcarnitine ([3]; Minimum): 2.4
- Propionylcarnitine from odd carbon precursor ([3]; MCAD-1 fibroblast cell line): 10.6 nmol/mg Protein/72 hours
- Propionylcarnitine from odd carbon precursor ([3]; MCAD-2 fibroblast cell line): 17.4 nmol/mg Protein/72 hours
- Propionylcarnitine from oxidation of fatty acid [4]: 57.7 nmol/mg Protein/72 hours and 32.4 nmol/mg Protein/72 hours and 39.2 nmol/mg Protein/72 hours
- Propionylcarnitine from oxidation of fatty acid [5]: 53.2 nmol/mg Protein/72 hours and 23.5 nmol/mg Protein/72 hours and 24.0 nmol/mg Protein/72 hours and 10.6 nmol/mg Protein/72 hours and 22.7 nmol/mg Protein/72 hours
- Myristenoylcarnitine Level (VLCAD patient; time 0 hours, cis-5-C14:1, marker of lipolysis): 2.61
- Propionylcarnitine Level (VLCAD patient; time 0 hours, enteral meal via gastrostomy): 1.39
- Myristenoylcarnitine Level (VLCAD patient; time 1 hours): 2.83
- Propionylcarnitine Level (VLCAD patient; time 1 hours): 2.89
- Myristenoylcarnitine Level (VLCAD patient; time 2 hours): 1.38
- Propionylcarnitine Level (VLCAD patient; time 2 hours): 3.78
- Myristenoylcarnitine Level (VLCAD patient; time 3 hours): 2.64
- Propionylcarnitine Level (VLCAD patient; time 3 hours): 4.57
- Clinical or biochemical toxicity (VLCAD patient; meal test, 3 hour interval): no clinical or biochemical toxicity
- Clinical or biochemical toxicity (SCAD patient; meal test, 4 hours): no clinical or biochemical toxicity
- Relative Blood Levels of Fatty Acid Chain Lengths: C3 (SCAD patient; time 0 hours): 3.00
- Relative Blood Levels of Fatty Acid Chain Lengths: C4 (butyrylcarnitine) (SCAD patient; time 0 hours): 0.34
- Relative Blood Levels of Fatty Acid Chain Lengths: C3 (SCAD patient; time 1 hours): 2.08
- Relative Blood Levels of Fatty Acid Chain Lengths: C4 (butyrylcarnitine) (SCAD patient; time 1 hours): 0.16
- Relative Blood Levels of Fatty Acid Chain Lengths: C3 (SCAD patient; time 2 hours): 2.42
- Relative Blood Levels of Fatty Acid Chain Lengths: C4 (butyrylcarnitine) (SCAD patient; time 2 hours): 0.23
- Relative Blood Levels of Fatty Acid Chain Lengths: C3 (SCAD patient; time 3 hours): 3.29
- Relative Blood Levels of Fatty Acid Chain Lengths: C4 (butyrylcarnitine) (SCAD patient; time 3 hours): 0.26
- Relative Blood Levels of Fatty Acid Chain Lengths: C3 (SCAD patient; time 4 hours): 2.61
- Relative Blood Levels of Fatty Acid Chain Lengths: C4 (butyrylcarnitine) (SCAD patient; time 4 hours): 0.30
- Propionylcarnitine from oxidation of fatty acid [6]: 22.6 nmol/mg Protein/72 hours and 20.3 nmol/mg Protein/72 hours and 24.3 nmol/mg Protein/72 hours and 14.4 nmol/mg Protein/72 hours
- *C3 acylcarnitine [7]: 16.3
- *C5 acylcarnitine [7]: 0.9
- *C7 acylcarnitine [7]: 0.5
- Propionylcarnitine from oxidation of fatty acid [8]: 24.1 nmol/mg Protein/72 hours and 48.1 nmol/mg Protein/72 hours

SMILES: CCCCCCCCC(=O)O [C9, nonanoate, reference compound]
- *C3 acylcarnitine ([2]; CONTROL MEAN, N = 4): 3.9
- *C5 acylcarnitine ([2]; CONTROL MEAN, N = 4): 0.4
- *C7 acylcarnitine ([2]; CONTROL MEAN, N = 4): 0.3
- *C9 acylcarnitine ([2]; CONTROL MEAN, N = 4): 2.0
- Propionylcarnitine from odd carbon precursor [2]: 3.9 nmol/mg Protein/72 hours
- *C3 acylcarnitine ([3]; Maximum): 5.5
- *C5 acylcarnitine ([3]; Maximum): 0.7
- *C7 acylcarnitine ([3]; Maximum): 4.2
- *C9 acylcarnitine ([3]; Maximum): 10.3
- *C3 acylcarnitine ([3]; Mean): 3.0
- *C5 acylcarnitine ([3]; Mean): 0.5
- *C7 acylcarnitine ([3]; Mean): 2.8
- *C9 acylcarnitine ([3]; Mean): 7.3
- *C3 acylcarnitine ([3]; Minimum): 1.6
- *C5 acylcarnitine ([3]; Minimum): 0.3
- *C7 acylcarnitine ([3]; Minimum): 1.6
- *C9 acylcarnitine ([3]; Minimum): 4.0
- Propionylcarnitine from odd carbon precursor ([3]; MCAD-1 fibroblast cell line): 1.8 nmol/mg Protein/72 hours
- Propionylcarnitine from odd carbon precursor ([3]; MCAD-2 fibroblast cell line): 2.9 nmol/mg Protein/72 hours
- *C3 acylcarnitine [7]: 6.0
- *C5 acylcarnitine [7]: 0.4
- *C7 acylcarnitine [7]: 0.4
- *C9 acylcarnitine [7]: 3.2
